Where two headings read alike, the source gives them in different places.
Key:
[1] = Liquid dish neat product liquid-air partition coefficient; format: physicochemical
[2] = Probability of Ingredient Color Instability; format: physicochemical
[3] = class code letter within Comment Code

Structure (SMILES) | Log of liquid dish neat product liquid-air partition coefficient (Comment Code K/L) [1, 3] | Probability of Ingredient Color Instability (Comment Code E/F) [2, 3] | other results
CC1=CCCC2(C)OC2CCC(C)=CCC1 (racemic) [Material 568] |  |  | Log of liquid dish neat product liquid-air partition coefficient (Comment Code K/L) [1]: K (Log of liquid dish neat product liquid-air partition coefficient greater than or equal to −7); Probability of Ingredient Color Instability (Comment Code E/F) [2]: F (Probability of Ingredient Color Instability<71%)
CC1(O)CCOC2(CCCCC2)C1 (stereo not shown) [Material 16] | K (Log of liquid dish neat product liquid-air partition coefficient greater than or equal to −7) | F (Probability of Ingredient Color Instability<71%) | 
CCCCCCCCCCCCCC=O [Material 36] | K (Log of liquid dish neat product liquid-air partition coefficient greater than or equal to −7) | F (Probability of Ingredient Color Instability<71%) | 
CC1CC=CCCCCCCCC(=O)OCC1 (stereo not shown) [Material 52] | K (Log of liquid dish neat product liquid-air partition coefficient greater than or equal to −7) | F (Probability of Ingredient Color Instability<71%) | 
CCCCCCCCCC(C)C=O (stereo not shown) [Material 103] | K (Log of liquid dish neat product liquid-air partition coefficient greater than or equal to −7) | F (Probability of Ingredient Color Instability<71%) | 
CCCCCCC(CO)C(C)=O (stereo not shown) [Material 106] | K (Log of liquid dish neat product liquid-air partition coefficient greater than or equal to −7) | F (Probability of Ingredient Color Instability<71%) | 
CCCCCC1C(=O)CCC1CC(=O)OC (stereo not shown) [Material 113] | K (Log of liquid dish neat product liquid-air partition coefficient greater than or equal to −7) | F (Probability of Ingredient Color Instability<71%) | 
COC(C)(C)CCCC(C)CC=O (stereo not shown) [Material 126] | K (Log of liquid dish neat product liquid-air partition coefficient greater than or equal to −7) | F (Probability of Ingredient Color Instability<71%) | 
CC1=CC2CC(C=O)C1CC2C(C)C (stereo not shown) [Material 142] | K (Log of liquid dish neat product liquid-air partition coefficient greater than or equal to −7) | F (Probability of Ingredient Color Instability<71%) | 
CC1=CCC(C(C)CC=O)CC1 (stereo not shown) [Material 159] | K (Log of liquid dish neat product liquid-air partition coefficient greater than or equal to −7) | F (Probability of Ingredient Color Instability<71%) | 
CCCCCCCCCCCC=O [Material 178] | K (Log of liquid dish neat product liquid-air partition coefficient greater than or equal to −7) | F (Probability of Ingredient Color Instability<71%) | 
C=C(OCC)C1C(C)(C)CC(=O)CC1(C)C [Material 182] | K (Log of liquid dish neat product liquid-air partition coefficient greater than or equal to −7) | F (Probability of Ingredient Color Instability<71%) | 
C/C=C/CCC1CCCC(=O)O1 (stereo not shown) [Material 187] |  | F (Probability of Ingredient Color Instability<71%) | 
CCCCCCC1CCCC1=O (stereo not shown) [Material 189] |  | F (Probability of Ingredient Color Instability<71%) | 
COc1c2ccoc2c(OC)c2oc(=O)ccc12 [Material 199] |  | F (Probability of Ingredient Color Instability<71%) | 
CCCCCCC1=CCCC1=O [Material 209] |  | F (Probability of Ingredient Color Instability<71%) | 
CC(C)=CCCC1=CCC(C=O)CC1 (stereo not shown) [Material 211] | K (Log of liquid dish neat product liquid-air partition coefficient greater than or equal to −7) | F (Probability of Ingredient Color Instability<71%) | 
CC=Cc1ccc(OCc2ccccc2)c(OC)c1 [Material 212] |  | F (Probability of Ingredient Color Instability<71%) | 
CC1=CC(C)C(C=O)C(C)C1 (stereo not shown) [Material 218] |  | F (Probability of Ingredient Color Instability<71%) | 
CCC1=C(O)C(=O)C(C)O1 (stereo not shown) [Material 259] | K (Log of liquid dish neat product liquid-air partition coefficient greater than or equal to −7) | F (Probability of Ingredient Color Instability<71%) | 
CC(C)=CCCC(C)=CCOC(=O)Cc1ccccc1 [Material 300] |  | F (Probability of Ingredient Color Instability<71%) | 
C=CC(C)(O)CCC=C(C)CCC=C(C)CCC=C(C)C (stereo not shown) [Material 303] |  | F (Probability of Ingredient Color Instability<71%) | 
CC1=C2CC(C(C)(C)O)CCC2(C)CCC1 (stereo not shown) [Material 329] | K (Log of liquid dish neat product liquid-air partition coefficient greater than or equal to −7) | F (Probability of Ingredient Color Instability<71%) | Comment Code: Log of liquid dish neat product liquid-air partition coefficient ([1]; code letters K, L): K (Log of liquid dish neat product liquid-air partition coefficient greater than or equal to −7)
C=CC(C)CC/C=C(\C)CCC=O (stereo not shown) [Material 358] | K (Log of liquid dish neat product liquid-air partition coefficient greater than or equal to −7) | F (Probability of Ingredient Color Instability<71%) | 

Structure (SMILES) | Log of liquid dish neat product liquid-air partition coefficient (Comment Code K/L) [1, 3] | Probability of Ingredient Color Instability (Comment Code E/F) [2, 3] | other results
CCCCCCCC1CCCC1=O (stereo not shown) [Material 362] |  | F (Probability of Ingredient Color Instability<71%) | 
C=CCc1ccc(OC(C)=O)c(OC)c1 [Material 374] | K (Log of liquid dish neat product liquid-air partition coefficient greater than or equal to −7) | F (Probability of Ingredient Color Instability<71%) | 
CCOC(=O)C1OC1(C)c1ccccc1 (stereo not shown) [Material 377] | K (Log of liquid dish neat product liquid-air partition coefficient greater than or equal to −7) | F (Probability of Ingredient Color Instability<71%) | 
O=C1CCCCCCCCCCCC(=O)OCCO1 [Material 378] |  | F (Probability of Ingredient Color Instability<71%) | 
CCCCCCC(=O)CC [Material 394] |  | F (Probability of Ingredient Color Instability<71%) | 
O=CCCC=C1CC2CC1C1CCCC21 (stereo not shown) [Material 418] | K (Log of liquid dish neat product liquid-air partition coefficient greater than or equal to −7) | F (Probability of Ingredient Color Instability<71%) | 
CC=CC(=O)OC(C)C1CCCCC1 (stereo not shown) [Material 475] | K (Log of liquid dish neat product liquid-air partition coefficient greater than or equal to −7) | F (Probability of Ingredient Color Instability<71%) | 
CC(C=O)Cc1ccc(C(C)C)cc1 (stereo not shown) [Material 478] | K (Log of liquid dish neat product liquid-air partition coefficient greater than or equal to −7) | F (Probability of Ingredient Color Instability<71%) | 
O=C(OC1CCCCC1)c1ccccc1O [Material 482] |  | F (Probability of Ingredient Color Instability<71%) | 
O=C1CCCCCCCCCCC(=O)OCCO1 [Material 485] |  | F (Probability of Ingredient Color Instability<71%) | 
CC1=C(CCC(C)C=O)C(C)(C)CCC1 (stereo not shown) [Material 560] | K (Log of liquid dish neat product liquid-air partition coefficient greater than or equal to −7) | F (Probability of Ingredient Color Instability<71%) | 
CC1=CCC(C23CCCC(C)(C2)OC3)C1(C)C (stereo not shown) [Material 571] |  |  | Probability of Ingredient Color Instability (Comment Code E/F) [2]: F (Probability of Ingredient Color Instability<71%)
COc1ccc(COC(=O)Cc2ccccc2)cc1 [Material 663] |  |  | Probability of Ingredient Color Instability (Comment Code E/F) [2]: F (Probability of Ingredient Color Instability<71%)
CCCCCCCC(C)=O [Material 840] |  |  | Probability of Ingredient Color Instability (Comment Code E/F) [2]: F (Probability of Ingredient Color Instability<71%)
CCCCCC=C1CCCC1=O [Material 850] |  |  | Probability of Ingredient Color Instability (Comment Code E/F) [2]: F (Probability of Ingredient Color Instability<71%)
CCC(C)CCCC(C)C=O (stereo not shown) [Material 866] |  |  | Probability of Ingredient Color Instability (Comment Code E/F) [2]: F (Probability of Ingredient Color Instability<71%)
CC1(C)C2CC=C(CC=O)C1C2 (stereo not shown) [Material 973] |  |  | Probability of Ingredient Color Instability (Comment Code E/F) [2]: F (Probability of Ingredient Color Instability<71%)
Cc1ccc(OC(=O)Cc2ccccc2)cc1 [Material 998] |  |  | Probability of Ingredient Color Instability (Comment Code E/F) [2]: F (Probability of Ingredient Color Instability<71%)
CCC(=O)OCC(=O)OC(C)C1CCCC(C)(C)C1 (stereo not shown) [Material 1009] |  |  | Probability of Ingredient Color Instability (Comment Code E/F) [2]: F (Probability of Ingredient Color Instability<71%)
CCCCCC1C(=O)CCC1C (stereo not shown) [Material 1053] |  |  | Probability of Ingredient Color Instability (Comment Code E/F) [2]: F (Probability of Ingredient Color Instability<71%)
CC1=CCCC(C)(C)C12CCC(C)O2 (stereo not shown) [Material 1057] |  |  | Probability of Ingredient Color Instability (Comment Code E/F) [2]: F (Probability of Ingredient Color Instability<71%)
COC(=O)c1ccccc1NC(O)CC(C)c1ccccc1 (stereo not shown) [Material 1093] |  |  | Probability of Ingredient Color Instability (Comment Code E/F) [2]: F (Probability of Ingredient Color Instability<71%)
COC(=O)c1ccccc1N=CC(C)Cc1ccc(C(C)(C)C)cc1 (stereo not shown) [Material 1121] |  |  | Comment Code: Probability of Ingredient Color Instability ([2]; codes E/F of the Comment Code, Table 1): F (Probability of Ingredient Color Instability<71%)

Source: patent publication US20160090556A1, “PRODUCTS COMPRISING MALODOR REDUCTION MATERIALS” (The Procter & Gamble Company, priority 2014, published 2016)
